Reference: article PMC7112222, “Investigation of pyrimidine nucleoside analogues as chemical probes to assess compound effects on the proliferation of Trypanosoma cruzi intracellular parasites” (PLoS Neglected Tropical Diseases, 2020)
Several values for one entry are separate records, joined by “and”; a condition that tells them apart may be missing. Equal entries are not always repeated.

Tested on: T. cruzi amastigote DNA
Assay: Incorporation of pyrimidine nucleoside analogues into T. cruzi amastigote DNA (click chemistry, colocalisation with Hoechst)
Format: cell-based, Trypanosoma cruzi

C#Cc1cn([C@H]2C[C@H](O)[C@@H](CO)O2)c(=O)[nH]c1=O [EdU, 5-ethynyl-2′-deoxy-uridine]
% incorporation into T. cruzi DNA (2 hours, 1.8 μM): 75 ± 3.6% | % of Hoechst defined T. cruzi cells with incorporation (4 hours, 0.37 μM): 89 ± 4.8% | % of cells with incorporation (48 hours exposure, 0.018 μM): 72 ± 1.09% | % of cells containing Alexa Fluor 488 labelled DNA (incorporation) (48 hours exposure, 0.037 μM): 93.1 ± 2.8% | highest incorporation (48 hours exposure, 0.073 μM): 94 ± 2.5% and 94% | incorporation into T. cruzi DNA following 48 hours incubation (in words) (48 hours incubation): incorporated
